Reference: a compilation of properties of binary mixtures (doi:10.1021/je970101l)

Assay: excess molar enthalpy (molar enthalpy of mixing); xn = mol fraction of the nth substance listed
Conditions: 298.15 K, 100 kPa

C=COC(C)=O + COC(=O)OC
Conditions	excess molar enthalpy [kJ/mol]
x2 = 0.0437	-0.0042
x2 = 0.0838	-0.0112
x2 = 0.1207	-0.0163
x2 = 0.1546	-0.0212
x2 = 0.2153	-0.0302
x2 = 0.2679	-0.0365
x2 = 0.3544	-0.0436
x2 = 0.4226	-0.0463
x2 = 0.5233	-0.0463
x2 = 0.6222	-0.0433
x2 = 0.8145	-0.0239
x2 = 0.8682	-0.0151
x2 = 0.8978	-0.0106
x2 = 0.9294	-0.006
x2 = 0.9634	-0.0027

CCCCCCOC(C)=O + COC(=O)OC
Conditions	excess molar enthalpy [kJ/mol]
x2 = 0.0755	0.086
x2 = 0.1404	0.16
x2 = 0.2462	0.288
x2 = 0.3289	0.376
x2 = 0.3951	0.434
x2 = 0.4949	0.486
x2 = 0.5665	0.503
x2 = 0.7462	0.424
x2 = 0.7967	0.378
x2 = 0.8546	0.292
x2 = 0.9216	0.17
x2 = 0.94	0.127
x2 = 0.9522	0.109

CCCCCOC(C)=O + COC(=O)OC
Conditions	excess molar enthalpy [kJ/mol]
x2 = 0.0684	0.058
x2 = 0.128	0.114
x2 = 0.1804	0.164
x2 = 0.2269	0.21
x2 = 0.3057	0.28
x2 = 0.3699	0.338
x2 = 0.54	0.399
x2 = 0.6378	0.389
x2 = 0.7254	0.341
x2 = 0.7789	0.302
x2 = 0.8409	0.239
x2 = 0.8757	0.199
x2 = 0.9337	0.11
x2 = 0.9548	0.075
x2 = 0.9769	0.038

CCCCOC(C)=O + COC(=O)OC
Conditions	excess molar enthalpy [kJ/mol]
x2 = 0.0612	0.049
x2 = 0.1153	0.092
x2 = 0.1636	0.131
x2 = 0.2068	0.166
x2 = 0.2812	0.213
x2 = 0.3428	0.245
x2 = 0.4389	0.279
x2 = 0.5105	0.288
x2 = 0.7578	0.232
x2 = 0.8112	0.19
x2 = 0.8622	0.151
x2 = 0.9037	0.11
x2 = 0.926	0.085
x2 = 0.9494	0.06
x2 = 0.9741	0.032

CCCOC(C)=O + COC(=O)OC
Conditions	excess molar enthalpy [kJ/mol]
x2 = 0.0538	0.033
x2 = 0.1021	0.06
x2 = 0.1457	0.082
x2 = 0.1853	0.104
x2 = 0.2544	0.13
x2 = 0.3127	0.151
x2 = 0.4056	0.173
x2 = 0.4764	0.183
x2 = 0.5771	0.184
x2 = 0.6718	0.171
x2 = 0.8912	0.073
x2 = 0.9161	0.056

CCOC(C)=O + COC(=O)OC
Conditions	excess molar enthalpy [kJ/mol]
x2 = 0.0426	0.0074
x2 = 0.0883	0.0121
x2 = 0.1269	0.0173
x2 = 0.1623	0.0211
x2 = 0.2252	0.0262
x2 = 0.3677	0.0348
x2 = 0.5376	0.0408
x2 = 0.6356	0.04
x2 = 0.7772	0.0316
x2 = 0.823	0.0279
x2 = 0.9029	0.017
x2 = 0.9331	0.0119
x2 = 0.9654	0.0061

COC(C)=O + COC(=O)OC
Conditions	excess molar enthalpy [kJ/mol]
x2 = 0.0729	-0.0008
x2 = 0.1055	-0.0024
x2 = 0.1359	-0.0046
x2 = 0.2393	-0.0099
x2 = 0.3206	-0.0121
x2 = 0.3862	-0.0131
x2 = 0.586	-0.0097
x2 = 0.739	-0.0041
x2 = 0.7906	-0.0028
x2 = 0.8499	-0.0004
x2 = 0.883	0.0007
x2 = 0.9189	0.0019
x2 = 0.9577	0.0009
